The conditions of assay [1]: background art; cited from earlier work.
In assay [2] the test system is preproinsulin I and preproinsulin II mRNA. Put plainly: Insulin gene expression in organs of GLP-1(1-37)-administered STZ diabetes model rat (RT-PCR). The class given is in vivo. Conditions: 80 μg/head i.p. once a day for ten days, 42nd day. As for the experimental part:
GLP-1(1-37) was confirmed to have the blood sugar decrease effect, so that the presence or absence of insulin production in the intestine of the GLP-1(1-37) administered group was determined by the method described below. GLP-1(1-37)(80 μg/head) or PBS was intraperitoneally administered to each of 6 Wistar male rats once a day over a ten-day […] period from day 2 to 12. On the 7th day of the administration (9-day old), 75 mg/kg of STZ was subcutaneously administered to induce diabetes. In order to prepare normal controls, some PBS-administered rats were administered citrate buffer instead of STZ. Subsequently, the rats were allowed to ingest feed and water freely. On the 42nd day, autopsy was performed to collect the pancreas, stomach, intestine, and lung. After RNA was prepared from each organ using ISOGEN (NIPPONGENE), mRNA of preproinsulin I and mRNA of preproinsulin II were quantified by the RT-PCR method. Oligonuculeotides shown in SEQ ID NOS: 24 and 25 were used for preproinsulin I, and oligonuculeotides shown in SEQ ID NOS: 26 and […] were used for preproinsulin II as PCR primers.

The subject of the next assay is jejunal cells. Put plainly: Comparison between GLP-1 and other growth factors, RT-PCR in jejunal cells. In kind it is cell-based, mouse. The following applies: GLP-1(1-37) 10 nm/l with activin A, beta cellulin, HGF, EGF; 8 days. The protocol: In the presence or absence of GLP-1(1-37) (10 nm/l), jejunal cells were cultured by the same way as that of paragraph <1>, except that activin A, beta cellulin, hepatocyte growth factor (HGF), and epidermal growth factor (EGF), which had been reported to control the growth and differentiation of secretory cells in the pancreas, were added. Then, the expression amounts of various kinds of genes were analyzed (a culture period of 8 days).

The subject of the next assay is jejunum. Put plainly: Organ culture of embryonal mouse jejunum, insulin in the culture medium. In kind it is cell-based. The following applies: 50 nM GLP-1(1-37) with 50 nM PDGF, jejunum of 14.5-day embryonal mouse in collagen gel. As for the experimental part: (§1) The jejunum collected from a 14.5-day embryonal mouse was embedded in type I collagen gel (Nitta Gelatin Inc.) and was then grown in organ culture in the presence of 50 nM GLP-1(1-37) and 50 nM PDGF (Platelet Derived Growth Factor). The amount of insulin in the culture medium was determined using a mouse insulin-detecting kit (Shibayagi) according to the attached protocol.

Assay [3] relates to pancreas, stomach, liver, and duodenal cells. In words: Primary culture of embryonal mouse pancreas, stomach, liver and duodenal cells, double stain with antibodies to insulin and glucagon. In kind it is cell-based. The following applies: 10 nmol/l, cultured 8 days. As for the experimental part: (§2) Cells originating from various kinds of tissues of a 17.5 day-old embryonal mouse were divided into a group added with GLP-1(1-37) (10 nmol/l) or GLP-1(7-37) (10 nmol/l) and a non-addition control group, and were then cultured. After the cells had been cultured for 8 days, a double stain was performed using antibodies to insulin and glucagon. Specifically, the process was performed as follows.
(§3) Specimens of pancreas, liver, stomach, duodenum, and small intestine (including the jejunum, ileum, and colon) tissues were collected from a 17.5 day-old C57BL/6 embryonal mouse under a microscope. Then, those tissues were immersed in a Hanks solution (Hanks Balanced Solution, Gibco BRL, Co., Ltd., without containing Ca) containing 5 mM of CaCl2 (pH 7.4) and 0.1% of collagenase, and were then incubated at 37° C. for 10 to 20 minutes, followed by gently pipetting for digestion, respectively.
The obtained cells were washed with a culture medium and then inoculated in a 6-well plate for tissue culture at a cell density of 5×10^4 cells/cm^2. After 24 hours from the start of the culture, GLP-1(1-37) or GLP-1(7-37) was added to the culture. […]

The test system of the next assay is intestinal cells. Put plainly: Primary culture of embryonal mouse intestinal cells, double stain with antibodies to insulin and glucagon. Conditions: 10 nmol/l, cultured 8 days; for generation of insulin-positive cells in intestinal cells: 17.5 day-old embryonal mouse cells. In kind it is cell-based. The protocol:
as §2, §3
The obtained cells were washed with a culture medium and then inoculated in a 6-well plate for tissue culture at a cell density of 5×10^4 cells/cm^2. After 24 hours from the start of the culture, GLP-1(1-37) or GLP-1(7-37) was added to the culture. Furthermore, after the cells had been continuously cultured for 8 days, the cells were washed three times with phosphate buffer (hereinafter, referred to as “PBS”) and then fixed by immersing in a 4% paraformaldehyde-phosphate buffer for 5 minutes and a 25% acetone/methanol solution for 1 minute. It should be noted that GLP-1(1-37) and GLP-1(7-37) were purchased from SIGMA.
Subsequently, each well was washed with 0.05% Tween 20/PBS, followed by immersing in 0.2% Triton X100 for 1 hour. After that, anti-insulin goat antibody (Santa Cruz) and anti-glucagon mouse antibody (Sigma) were added to each well, and the whole was incubated at 4° C. for 16 hours, followed by washing the well. Then, Alexa 488-binding anti-goat IgG donkey antibody (Molecular Probes) or Cy3-binding anti-mouse IgG donkey antibody (Jackson Immuno Research Laboratories Inc.) was added to each well, and the whole was then incubated at 4° C. for 4 hours. […]

Assay [4] concerns cultured intestinal cells. Put plainly: RT-PCR gene expression in organ culture of jejunum, concentration-dependent effects. The following applies: 8 days. The class given is cell-based, mouse. As for the experimental part:
Using a quantitative PCR method, the effects of GLP-1(1-37) on the cultured intestinal cells were analyzed in detail as described below.
Four concentrations of GLP-1(1-37), 0, 5, 10, and 50 nmol/l, were prepared and the organ culture of jejunum was performed by the same way as that of Example 3. After the jejunum had been cultured for 8 days, analyzed using the RT-PCR were the expression amounts of insulin genes (preproinsulin I and preproinsulin II), transcription factor group [neurogenin 3 (ngn3), neuroD/BETA 2, pax-4, Nkx 6.1, and hepatocyte nuclear factor 6 (HNF-6)] that controls the differentiation of secretory cells in the pancreas, a GLP-1 receptor (GLP-1 R), preproglucagon, pancreas duodenal homobox 1 (pdx-1), and hypoxanthine phosphoribosyl transferase (HPRT) as a positive control.
The RT-PCR was performed according to the method described in the literature (Hepatology, 32: 1230-1239) using primers. The primers used herein were as follows.
GLP-1R (SEQ ID NOS: 3 and 4), preproinsulin 1 (SEQ ID NOS: 5 and 6), preproinsulin II (SEQ ID NOS: 7 and 8), preproglucagon (SEQ ID NOS: 9 and 10), pdx-1 (SEQ ID NOS: 11 and 12), ngn3 (SEQ ID NOS: 13 and 14), neuroD (SEQ ID NOS: 15 and 16), pax-4 (SEQ ID NOS: 17 and 18), Nkx 6.1 (SEQ ID NOS: 19 and 20), HNF-6 (SEQ ID NOS: 21 and 22), and HPRT (SEQ ID NOS: 23 and 24).

A further assay relates to diabetes model mouse. Put plainly: Transplanting cultured jejunum into STZ diabetes model mouse, blood sugar level. The class given is in vivo. As for the experimental part: as §1
The jejunum at the second day from the start of the organ culture was transplanted in the abdominal cavity of a diabetes model mouse. The mouse was changed to a type I diabetes model by the administration of 200 mg/kg streptozotocin (hereinafter, referred to as “STZ”) three days before the transplantation, and the blood sugar level of the mouse was 300 to 350 mg/dl. Similarly, jejunal cells cultured in the absence of GLP-1 (1-37) were transplanted into a diabetes model mouse.

In the next assay the test system is STZ diabetes model rat. Put plainly: Blood sugar decrease effect on STZ diabetes model rat. The class given is in vivo. The protocol:
GLP-1 (1-37) (80 μg/head) or PBS was intraperitoneally administered to a Wistar male rat once a day over a ten-day period from day 2-12 after birth. On the 7th day of the administration (9-day old), 75 mg/kg of STZ was subcutaneously administered to induce diabetes. In order to prepare normal controls, some PBS-administered rats were administered citrate buffer instead of STZ. Subsequently, the rats were allowed to ingest feed and water freely. In the 42nd day, blood of each rat was drawn from the tail vein and the blood sugar level was measured. The measurement of the blood sugar level was performed using the whole blood sample by the glucose oxidase method in accordance with a general method.

Assay [5] concerns intestinal epithelium cells. Put plainly: In vivo GLP-1(1-37) administration to pregnant mouse, insulin/glucagon immunostain of newborn intestine sections. Conditions: 10 nmol i.p. to pregnant mouse daily, embryonal day 10.5 to 17.5. The protocol:
GLP-1(1-37) (10 nmol) was intraperitoneally injected to a pregnant mouse at the same time every day over a seven-day embryonal period from day 10.5 to 17.5. After birth, tissue sections from the small and large intestine of a newborn mouse were double-stained using antibodies to insulin and glucagon. Specifically, the double stain was performed as follows.
Each tissue of the small intestine (including jejunum and ileum) and the large intestine was immersed overnight in a 4% paraformaldehyde-phosphate buffer at 4° C., followed by embedding in O.C.T. compound to prepare section samples. The section samples were dried and fixed with acetone. Subsequently, the section samples were dried overnight at −20° C. and then washed with PBS-Tween 20, followed by immersing in 0.2% Triton X100 for 1 hour. After that, using anti-insulin goat antibody (Santa Cruz) or anti-glucagon mouse antibody (Sigma), and Alexa 488-binding anti-goat IgG donkey antibody or Cy3-binding anti-mouse IgG donkey antibody, the immunostain of insulin and glucagon was carried out, respectively.

The next assay concerns GLP-1R. In words: Experiment of inhibiting GLP-1 function with exendin (9-39), RT-PCR in jejunal cells. In kind it is cell-based, mouse. Conditions: 8 days. As for the experimental part:
Jejunal cells were cultured by the same way as that of paragraph <1>, except that 0, 10, 100, or 1,000 nmol/l of exendin (9-39), which was a GLP-1R antagonist, was simultaneously added together with GLP-1(1-37) (10 nmol/l). Then, the expression amounts of the insulin gene and other various kinds of genes were analyzed (a culture period of 8 days).

Where [6] appears, read: STZ mouse transplanted with jejunal cells treated with GLP-1(1-37), baseline 300 to 350 mg/dl.

Data on three substances can be found in US7423019B2, “Agent for inducing conversion of intestinal cells into insulin-producing cells and antidiabetic drug” (Ajinomoto Co., Inc., priority 2003, dated 2008).

“Also recorded” adds a separate entry of the source.

Consider “GLP-1(1-37): 37-amino acid peptide having the amino acid sequence from position 92 to position 128 of a preproglucagon peptide; purchased from SIGMA (HDEFERHAEGTFTSDVSSYLEGQAAKEFIAWLVKGRG; Glucagon-like peptide 1; UniProt P01275 92-128, looked up, fragment)”, for which the activity as incretin entry in assay [1] is reported as “weak activity”. In assay [2], the “expression of preproinsulin genes in the pancreas, stomach, and lung” value is listed as “no expression was observed”; the “expressions of preproinsulin I gene and preproinsulin II gene in the intestine” value is “significantly increased”. Also, in the assay on jejunal cells, the “expression of preproglucagon and pdx-1” value is on record as “no change”; the “expression of preproinsulin I, preproinsulin II, and ngn3” value is “high expression”. The “insulin secretion into the culture medium” value with jejunum is on record as “insulin secretion was observed”. In assay [3], the “number of insulin-positive cells and glucagon-positive cells versus non-addition group” value was “no difference”. In the assay on intestinal cells, the “glucagon staining of the insulin-positive cells” value was “strongly glucagon-positive” and the “generation of insulin-positive cells in intestinal cells” value is reported as “insulin-positive cells were only observed; also recorded: effects on the induction”. Moreover, in [4] (0, 5, 10, 50 nmol/l), the “expression of GLP-1R, preproglucagon and pdx-1 versus non addition group” value is recorded as “no change in expression”; the “expression of transcription factor group controlling differentiation of secretory cells in the pancreas” value is given as “increase in expression”. Also, the “expression of the insulin gene (preproinsulin I, preproinsulin II)” value in [4] (5 nmol/l, FIG. 1) is given as “expression of the insulin gene was observed”. The “change of blood sugar level after transplantation” value with diabetes model mouse (STZ mouse (300 to 350 mg/dl) transplanted with jejunal cells treated with GLP-1(1-37)) is “decrease in blood sugar level was observed”. Moreover, in the assay with diabetes model mouse (setting [6]), the “blood sugar level after eight weeks from the transplantation” value was 75 to 100 mg/dL and the “blood sugar level after four weeks from the transplantation” value is 125 to 225 mg/dL. Moreover, in the assay on STZ diabetes model rat (80 μg/head i.p. once a day for ten days, 42nd day), the “blood sugar level compared to diabetes control group” value is “decreased significantly”. Further, the blood sugar level in the assay with STZ diabetes model rat (80 μg/head i.p. once a day, day 2-12 after birth, STZ 75 mg/kg s.c., measured 42nd day, n = 6) is given as 430 ± 89 ^##. Moreover, in assay [5], the “insulin-positive intestinal epithelium cells in small and large intestine of newborn mouse” value is recorded as “many insulin-positive intestinal epithelium cells were observed”; the “number of insulin positive cells, small intestine compared with large intestine” value is “higher”.
With “GLP-1(7-37) (HAEGTFTSDVSSYLEGQAAKEFIAWLVKGRG; Glucagon-like peptide 1; UniProt P01275 98-128, looked up, fragment) [reference compound]”, the “number of insulin-positive cells and glucagon-positive cells versus non-addition group” value in [3] is given as “no difference”. In addition, in the assay on intestinal cells, the “generation of insulin-positive cells in intestinal cells” value was “can not effect on the induction”.
For exendin (9-39), in the assay on GLP-1R (exendin (9-39) 10, 100 or 1,000 nmol/l added together with GLP-1(1-37) 10 nmol/l), the “expression of preproinsulin I, preproinsulin II, and ngn3” value was “hardly observed”. In addition, the “expression of preproglucagon and pdx-1” value in the assay on GLP-1R (exendin (9-39) added together with GLP-1(1-37) 10 nmol/l) is “not influenced”.
